These results are taken from patent publication US20240228536A1, “PEPTIDES FOR USE IN SKIN AND HAIR PIGMENTATION” (Follicum AB, priority 2020, published 2024).

The test system of one series is skin equivalents. Nature of the series: Total melanin assay. The class given is cell-based, human. As for the experimental part:
The skin equivalents used in this study was from the same donors as in Example 2. The determination of the total melanin content of the skin equivalent was determined using a total melanin assay.
The total melanin content of the SE was calculated by dissolving the SE in Soluene and reading the absorbance against a standard curve. The SEs were removed from culture on day 20 and washed with PBS. They were then transferred to a glass centrifuge tube and 500 μl Soluene added. The tubes were then covered with […]®, gently vortexed and placed on the Thermomixer at 50° C. for 1 hour. The tubes were then gently vortexed and 150 μl of the sample and synthetic melanin standards pipetted in triplicate into a glass 96 well plate. The absorbance was then measured at 490 nm on a Spectrophotometer. Results are presented in μg/ml against a standard curve. The change of melanin content is expressed as a percentage change versus vehicle control samples. An ANOVA (with Dunnett's post-test) was used for the statistical analysis.
Three experiments were conducted, and the same donors were used as in Example 2. The sample sizes were as follows: experiment 1 n=2, experiment 2 n=4 and experiment 3 n=7. Peptides 1 (SEQ ID NO: 2), 3 (SEQ ID NO: 3) and 4 (SEQ ID NO: 4) were tested.

Series [1] deals with Melanoderms Mel-300-A (donor). Nature of the series: Skin equivalent culture, peptides in formulation, photographic assessment of pigmentation. It counts as cell-based, human. Particulars: 7 days; for pigmentation of SEs (visual assessment), response by concentration: 0.4%, 1% and 2% in formulation B, relative to vehicle controls; for pigmentation of SEs (visual assessment): in formulation B, 25 μl topical, vs formulation B only and peptide dissolved in water (10 mg/ml). As for the experimental part:
Pigmented skin equivalents (SEs), Melanoderms Mel-300-A (donor) were obtained from Mattek Ltd together with the associated media […]-113 and hanging well plates. The skin equivalent surface area was 63.6 mm^2. Other equipment used included SMZ1000 Stereo 10 Microscope (Nikon); UC30 Microscope Camera (Olympus); Sterile Phosphate-Buffered Saline (PBS, Thermofisher, UK); 12-well Tissue Culture Plates (Sarstedt). All incubations were carried out in a humidified incubator maintained at 37° C. with 5% CO2. Pure peptide (>99%) was obtained from Biomatik, USA as acetate salt. The Melanoderms were prepared by carefully removing the agarose with sterile forceps and placing in 5 ml pre-warmed culture medium in hanging plates and incubated overnight. […] The tissue surface was photographed using an Olympus camera system attached to an inverted microscope to record initial pigmentation levels. SEs were transferred back to hanging well plates containing 5 ml fresh media. Three SEs were removed to provide baseline day 0 controls for analysis using WS staining and qPCR analysis. SEs (n=3 per treatment) were topically treated for 7 days with 25 μl of the various peptide concentrations in formulations as prepared in Example 12 in parallel with relevant controls. […] Each formulation was applied to the surface of SEs using a positive displacement pipette and spread evenly using a sterile microbiological loop. SEs were maintained at 37° C., 5% CO2 in a humidified incubator with media refreshed every other day until the end of treatment. On day 7 SEs were removed from culture and formulation carefully removed using a sterile microbiological loop and the surface rinsed in PBS then blotted dry with a sterile cotton bud. […] The pigmentation of the Melanoderms was macroscopically assessed by capturing high-resolution images using the Olympus microscope camera.

For a further series, the system named is PMEL. Nature of the series: qPCR expression analysis of melanogenesis markers in Melanoderm SEs. The class given is cell-based, human. The conditions noted are these: 0.4% in formulation B, day 7, against formulation B treatment only (p=0.015, t-test). How it is done:
(§1) RNA stabilized Melanoderm tissue from Example 13 was thawed on ice RNA extracted using the RNeasy extraction kit (Qiagen, UK) according to manufacturer's instructions.
(§2) To ensure efficient lysis, tissue was ground in lysis buffer in a RNase-free 1.5 ml centrifuge tube using a sterile microbiological colony picker then passed through a Qiashredder column (Qiagen, UK) before lysate was purified. To prevent carry over of gDNA to qPCR, on-column digestion using 80 μl of DNase enzyme was added (DNase on column digestion kit, Sigma, UK). RNA was eluted in a 50 μl volume of sterile elution buffer and stored at −80° C. until use. For cDNA reverse transcription 8 μl of RNA was added as template in a 20 μl final volume in a 96-well plate using the iScript Advanced cDNA Synthesis Kit for RT-qPCR (Bio-Rad, UK) according to manufacturer's instructions. Low profile 96-well PCR plates and seals for qPCR reactions were obtained from Thermofisher. For qPCR 1 μl of cDNA from each test sample and relevant controls were amplified in a 96-well plate using SsoAdvanced Universal SYBR® Green Supermix and target pigmentation specific gene primers (pigment cell-specific pre-melanosomal protein (PMEL), Tyrosinase-related protein-1 (TYRP-1) and Tyrosinase (TYR)) in a 20 μl final reaction volume. Prevalidated primers, templates and gDNA controls were sourced from Bio-Rad, UK. Prevalidated template cDNA was included as a positive control for each gene tested. Ribosomal protein-20 (RPS20) was used as a housekeeping gene control. Samples were amplified using an Applied Biosystems StepOne Plus qPCR machine and associated software. Differences in fold gene expression between treatments and untreated controls were calculated from RPS20 reference gene normalised Ct values using the ΔΔCt method (2-(ΔΔCt)). Final expression values were log 10 transformed prior to statistical analysis (unpaired t-test) using Prism software.
In general terms: In qPCR the cycle at which signal appears reflects the starting amount.

The test system of the next series is TYRP-1. Described as above. It counts as cell-based, human. Particulars: 0.4% in formulation B, day 7, against formulation B only (p=0.005, t-test). As for the experimental part:
as §1, §2

The next series relates to Tyrosinase (TYR). Described as above. It counts as cell-based, human. Particulars: 0.4% in formulation B, day 7, compared to formulation B only (p=0.027, t-test). How it is done:
as §1, §2

Series [2] in a line: Stability study of compositions comprising peptides 1 and 4 (HPLC purity). It counts as physicochemical. Particulars: water-free formulations A, B and C, 20° C., 12 weeks. How it is done: Samples of the separate formulations were stored at 20° C. […] Analysis of peptide purity in ointment and PBS solutions was performed using standard HPLC-UV-DA methods when the samples were freshly prepared (time 0) and after 1, 2, 6, 8 and 12 weeks.

[3] abbreviates: experiments 1 and 3, 10 mg/ml topical, day 20.

For the substance “Asn-Ala-Ala-Met (NAAM; (1)..(4) Peptide 4)”, the “total melanin content of skin equivalents vs vehicle control” value (“total melanin content … vs vehicle control” below) in the series on skin equivalents (experiment 2, 10 mg/ml topical, day 20, n=4) is reported as “significant increase in melanin content”. The “total melanin content … vs vehicle control” value in the series with skin equivalents (setting [3]) was “increase in melanin content”. Further, in series [1], the “pigmentation of SEs (visual assessment), response by concentration” value is recorded as “approximately equal increase in pigmentation relative to vehicle controls” and the “pigmentation of SEs (visual assessment)” value is recorded as “more pigmented than the vehicle control”. The “relative expression of PMEL (qPCR)” value in the series with PMEL is “greatest increase in expression which was significant”. Further, the “relative expression of TYRP-1 (qPCR)” value in the series with TYRP-1 is “moderately significant increase in expression”. Moreover, the “relative expression of Tyrosinase (TYR) (qPCR)” value with Tyrosinase (TYR) is reported as “significant increase in expression”.

Consider “Asn-Ala-His-Met (NAHM; (1)..(4) Peptide 1)”, for which the “total melanin content … vs vehicle control” value with skin equivalents (setting [3]) is on record as “increase in melanin content”. Further, the “stability (peptide purity by HPLC)” value in series [2] is reported as “stable”. In series [1], the “pigmentation of SEs (visual assessment), response by concentration” value was “highest response at the higher 1% and 2% concentrations”; the “pigmentation of SEs (visual assessment)” value is “more pigmented than the vehicle control”.
